Assay results published in PubChem BioAssay AID248 (DTP/NCI, 2004).
Where “and” joins values, the source holds several entries; their conditions need not be identical. Equal values may be shown once. Toxic doses and inconclusive results are not listed. Square brackets hold non-standard residues; d marks the D form. Peptide text beside a SMILES is read from it. Sar = CNCC(=O)O

Test system: L1210 leukemia ip in BDF1 mice, survival T/C
Assay: NCI In Vivo Anticancer Drug Screen. Data for tumor model L1210 Leukemia (intraperitoneal) in B6D2F1 (BDF1) mice
Details: endpoint: mean survival time, higher = longer survival
Summary of the method: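 Tumor was transplanted into mice, which were then dosed with test compound or vehicle alone. Survival was recorded for each group, and the treated figure was expressed relative to the control figure.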

[1] = dose: 50.0 mg/kg/injection, schedule: Q01DX001 (ip), vehicle: carboxymethylcellulose (CMC)
[2] = dose: 100.0 mg/kg/injection, schedule: Q01DX001 (ip), vehicle: carboxymethylcellulose (CMC)
[3] = dose: 100.0 mg/kg/injection, schedule: Q01DX009 (ip), vehicle: saline
[4] = dose: 200.0 mg/kg/injection, schedule: Q01DX001 (ip), vehicle: carboxymethylcellulose (CMC)
[5] = dose: 200.0 mg/kg/injection, schedule: Q01DX009 (ip), vehicle: saline
[6] = dose: 400.0 mg/kg/injection, schedule: Q01DX001 (ip), vehicle: carboxymethylcellulose (CMC)
[7] = dose: 100.0 mg/kg/injection, schedule: Q04DX003 (ip), vehicle: saline
[8] = dose: 200.0 mg/kg/injection, schedule: Q04DX003 (ip), vehicle: saline
[9] = dose: 100.0 mg/kg/injection, schedule: Q01DX001 (ip), vehicle: saline
[10] = dose: 200.0 mg/kg/injection, schedule: Q01DX001 (ip), vehicle: saline

C=C1N(S(=O)(=O)c2ccc(C)cc2)C(=O)OC12CCCCC2
T/C (dose: 100.0 mg/kg/injection, schedule: Q01DX009 (ip), vehicle: saline with Tween-80): 95 % of control
T/C (dose: 200.0 mg/kg/injection, schedule: Q01DX009 (ip), vehicle: saline with Tween-80): 103 % of control
T/C (dose: 400.0 mg/kg/injection, schedule: Q01DX009 (ip), vehicle: saline with Tween-80): 105 % of control

COc1c2c(cc3c1OCO3)[C@@]13CCN(C2)[C@@H]1CC=C[C@H]3O
T/C (dose: 5.0 mg/kg/injection, schedule: Q01DX001 (ip), vehicle: carboxymethylcellulose (CMC)): 105 % of control
T/C (dose: 10.0 mg/kg/injection, schedule: Q01DX001 (ip), vehicle: carboxymethylcellulose (CMC)): 105 % of control

CC(=O)N1CCCCC1
T/C [1]: 97 % of control
T/C [2]: 94 % of control
T/C [3]: 100 % of control
T/C [4]: 100 % of control
T/C [5]: 98 % of control

N=c1c2[nH]cnc2ncn1O
T/C [2]: 89 % of control
T/C [4]: 94 % of control
T/C [6]: 100 % of control

C=C(C1CC1)C1(CC)C(=O)NC(=S)NC1=O
T/C (dose: 75.0 mg/kg/injection, schedule: Q01DX001 (ip), vehicle: other): 102 % of control
T/C (dose: 150.0 mg/kg/injection, schedule: Q01DX001 (ip), vehicle: other): 113 % of control
T/C (dose: 300.0 mg/kg/injection, schedule: Q01DX001 (ip), vehicle: other): 94 % of control

Cc1ccc(Nc2nc(N)nc(N)c2N)c(C)c1
T/C (dose: 12.0 mg/kg/injection, schedule: Q01DX Z (ip), vehicle: saline): 110 % of control

Cc1ccc(Nc2nc(N)nc(N)c2N)cc1Cl
T/C (dose: 100.0 mg/kg/injection, schedule: Q01DX Z (ip), vehicle: saline): 104 % of control

CCNCCn1cccc1
T/C (dose: 50.0 mg/kg/injection, schedule: Q01DX009 (ip), vehicle: saline): 97 % of control
T/C [3]: 100 % of control
T/C [7]: 97 % of control
T/C [5]: 97 % of control
T/C [8]: 100 % of control

CC(C)N(C)/N=N/N(C)C(C)C
T/C (dose: 100.0 mg/kg/injection, schedule: Q01DX001 (ip), vehicle: saline with Tween-80): 101 % of control
T/C (dose: 200.0 mg/kg/injection, schedule: Q01DX001 (ip), vehicle: saline with Tween-80): 103 % of control
T/C (dose: 400.0 mg/kg/injection, schedule: Q01DX001 (ip), vehicle: saline with Tween-80): 117 % of control

S=c1cccn[nH]1
T/C (dose: 12.5 mg/kg/injection, schedule: Q01DX009 (ip), vehicle: other): 459 % of control
T/C (dose: 25.0 mg/kg/injection, schedule: Q01DX009 (ip), vehicle: other): 459 % of control
T/C (dose: 50.0 mg/kg/injection, schedule: Q01DX009 (ip), vehicle: other): 406 % of control
T/C (dose: 59.0 mg/kg/injection, schedule: Q01DX009 (ip), vehicle: other): 93 % of control and 101 % of control
T/C (dose: 89.0 mg/kg/injection, schedule: Q01DX009 (ip), vehicle: other): 96 % of control and 99 % of control
T/C (dose: 100.0 mg/kg/injection, schedule: Q01DX009 (ip), vehicle: other): 341 % of control
T/C (dose: 133.0 mg/kg/injection, schedule: Q01DX009 (ip), vehicle: other): 94 % of control and 100 % of control
T/C (dose: 300.0 mg/kg/injection, schedule: Q01DX009 (ip), vehicle: other): 96 % of control and 90 % of control

CC(=C(C#N)C#N)c1csc2ccccc12
T/C [2]: 97 % of control
T/C [4]: 87 % of control
T/C [6]: 92 % of control

CN(CC(=O)O)C(=O)CN (H-Gly-[Sar]-OH)
T/C (dose: 25.0 mg/kg/injection, schedule: Q04DX002 (ip), vehicle: saline): 113 % of control
T/C (dose: 50.0 mg/kg/injection, schedule: Q04DX002 (ip), vehicle: saline): 97 % of control
T/C (dose: 100.0 mg/kg/injection, schedule: Q04DX002 (ip), vehicle: saline): 103 % of control

COc1ccc(OC(=O)Nc2ccc(OC)cc2OC)cc1
T/C (dose: 100.0 mg/kg/injection, schedule: Q01DX009 (ip), vehicle: Klucel (hydroxypropylcellulose) (HPC)): 97 % of control
T/C (dose: 200.0 mg/kg/injection, schedule: Q01DX009 (ip), vehicle: Klucel (hydroxypropylcellulose) (HPC)): 104 % of control
T/C (dose: 400.0 mg/kg/injection, schedule: Q01DX009 (ip), vehicle: Klucel (hydroxypropylcellulose) (HPC)): 96 % of control

COc1ccc(OC)c([N+](=O)[O-])c1C=O
T/C (dose: 100.0 mg/kg/injection, schedule: Q01DX001 (ip), vehicle: other): 92 % of control
T/C (dose: 200.0 mg/kg/injection, schedule: Q01DX001 (ip), vehicle: other): 90 % of control
T/C (dose: 400.0 mg/kg/injection, schedule: Q01DX001 (ip), vehicle: other): 90 % of control

COB(CCCCB(OC)OC)OC
T/C (dose: 100.0 mg/kg/injection, schedule: Q01DX009 (ip), vehicle: saline sonified): 96 % of control
T/C [7]: 100 % of control
T/C (dose: 200.0 mg/kg/injection, schedule: Q01DX009 (ip), vehicle: saline sonified): 92 % of control
T/C [8]: 107 % of control
T/C (dose: 400.0 mg/kg/injection, schedule: Q01DX009 (ip), vehicle: saline sonified): 87 % of control
T/C (dose: 400.0 mg/kg/injection, schedule: Q04DX003 (ip), vehicle: saline): 94 % of control

COC1OC(CCl)C(OC(C)=O)C(OC(C)=O)C1OC(C)=O (stereo not drawn)
T/C (dose: 100.0 mg/kg/injection, schedule: Q04DX002 (ip), vehicle: Klucel (hydroxypropylcellulose) (HPC)): 96 % of control and 106 % of control
T/C (dose: 200.0 mg/kg/injection, schedule: Q04DX002 (ip), vehicle: Klucel (hydroxypropylcellulose) (HPC)): 104 % of control and 106 % of control
T/C (dose: 400.0 mg/kg/injection, schedule: Q04DX002 (ip), vehicle: Klucel (hydroxypropylcellulose) (HPC)): 101 % of control and 103 % of control

Cc1ccc(Nc2nc(N)nc(N)c2N)cc1C
T/C (dose: 25.0 mg/kg/injection, schedule: Q01DX Z (ip), vehicle: saline): 93 % of control

COc1ccc(C(=O)OCC(Br)CBr)cc1 (stereo not drawn)
T/C (dose: 222.0 mg/kg/injection, schedule: Q01DX Z (ip), vehicle: methylcellulose (MC)): 102 % of control
T/C (dose: 333.0 mg/kg/injection, schedule: Q01DX Z (ip), vehicle: methylcellulose (MC)): 108 % of control
T/C (dose: 500.0 mg/kg/injection, schedule: Q01DX Z (ip), vehicle: methylcellulose (MC)): 103 % of control

Clc1ccc(N=Cc2ccccc2)cn1
T/C [1]: 105 % of control
T/C [2]: 88 % of control
T/C [4]: 111 % of control
T/C [6]: 100 % of control

CN(Cc1ccccc1)C(=S)[S-].CN(Cc1ccccc1)C(=S)[S-].[Zn]
T/C (dose: 2.5 mg/kg/injection, schedule: Q01DX009 (ip), vehicle: acetone): 100 % of control
T/C (dose: 5.0 mg/kg/injection, schedule: Q01DX009 (ip), vehicle: acetone): 87 % of control
T/C (dose: 5.0 mg/kg/injection, schedule: Q04DX003 (ip), vehicle: saline): 95 % of control
T/C (dose: 10.0 mg/kg/injection, schedule: Q01DX001 (ip), vehicle: saline): 91 % of control
T/C (dose: 10.0 mg/kg/injection, schedule: Q01DX009 (ip), vehicle: acetone): 89 % of control
T/C (dose: 10.0 mg/kg/injection, schedule: Q04DX003 (ip), vehicle: saline): 92 % of control
T/C (dose: 20.0 mg/kg/injection, schedule: Q01DX001 (ip), vehicle: saline): 93 % of control
T/C (dose: 20.0 mg/kg/injection, schedule: Q04DX003 (ip), vehicle: saline): 89 % of control

COc1ccc(CN2CCCN(Cc3ccc(OC)cc3OC)C2c2ccc(F)cc2)c(OC)c1
T/C (dose: 50.0 mg/kg/injection, schedule: Q01DX001 (ip), vehicle: saline): 94 % of control
T/C [9]: 89 % of control
T/C [10]: 94 % of control
T/C (dose: 400.0 mg/kg/injection, schedule: Q01DX001 (ip), vehicle: saline): 100 % of control

COc1ccc(O)c(C2(O)OC(=O)c3c(OC)cccc32)c1 (stereo not drawn)
T/C [2]: 103 % of control and 111 % of control
T/C (dose: 100.0 mg/kg/injection, schedule: Q01DX009 (ip), vehicle: carboxymethylcellulose (CMC)): 100 % of control and 89 % of control
T/C (dose: 100.0 mg/kg/injection, schedule: Q04DX002 (ip), vehicle: carboxymethylcellulose (CMC)): 102 % of control and 113 % of control
T/C (dose: 100.0 mg/kg/injection, schedule: Q04DX003 (ip), vehicle: carboxymethylcellulose (CMC)): 95 % of control and 100 % of control
T/C [4]: 94 % of control and 106 % of control
T/C (dose: 200.0 mg/kg/injection, schedule: Q01DX009 (ip), vehicle: carboxymethylcellulose (CMC)): 104 % of control and 89 % of control
T/C (dose: 200.0 mg/kg/injection, schedule: Q04DX002 (ip), vehicle: carboxymethylcellulose (CMC)): 97 % of control
T/C (dose: 200.0 mg/kg/injection, schedule: Q04DX003 (ip), vehicle: carboxymethylcellulose (CMC)): 94 % of control and 100 % of control
T/C [6]: 94 % of control and 103 % of control
T/C (dose: 400.0 mg/kg/injection, schedule: Q04DX002 (ip), vehicle: carboxymethylcellulose (CMC)): 97 % of control and 98 % of control
T/C (dose: 400.0 mg/kg/injection, schedule: Q04DX003 (ip), vehicle: carboxymethylcellulose (CMC)): 95 % of control and 90 % of control

Clc1nnc2c3ccccc3ccn12
T/C [9]: 96 % of control
T/C [10]: 98 % of control
